# T1: NADP linked alcohol dehydrogenase (secondary alcohol dehydrogenase activity) (Thermoanaerobacter brockii, UniProt P14941)
# T1 construct: The NADP linked alcohol dehydrogenase derived from T. brockii can be immobilized; made in house; host or cells: T. brockii itself (native host)
# T1 sequence (P14941 1-352): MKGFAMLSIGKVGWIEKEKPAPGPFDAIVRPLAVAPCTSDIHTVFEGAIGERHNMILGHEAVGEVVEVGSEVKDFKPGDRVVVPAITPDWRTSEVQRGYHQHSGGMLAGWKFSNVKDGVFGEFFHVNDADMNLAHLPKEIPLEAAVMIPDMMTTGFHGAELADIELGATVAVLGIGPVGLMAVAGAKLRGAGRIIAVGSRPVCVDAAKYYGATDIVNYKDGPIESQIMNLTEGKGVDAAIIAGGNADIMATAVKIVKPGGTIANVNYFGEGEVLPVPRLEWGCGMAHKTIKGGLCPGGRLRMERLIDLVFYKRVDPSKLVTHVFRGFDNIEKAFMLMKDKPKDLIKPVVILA
# T2: NADP linked alcohol dehydrogenase (alcohol-aldehyde/ketone oxidoreductase) (Thermoanaerobacter brockii, UniProt P14941)
# T2 construct: of the T. brockii enzyme preparation with various alcohols and carbonyl compounds; made in house; host or cells: T. brockii itself (native host; partially purified enzyme)
# T2 sequence (P14941 1-352): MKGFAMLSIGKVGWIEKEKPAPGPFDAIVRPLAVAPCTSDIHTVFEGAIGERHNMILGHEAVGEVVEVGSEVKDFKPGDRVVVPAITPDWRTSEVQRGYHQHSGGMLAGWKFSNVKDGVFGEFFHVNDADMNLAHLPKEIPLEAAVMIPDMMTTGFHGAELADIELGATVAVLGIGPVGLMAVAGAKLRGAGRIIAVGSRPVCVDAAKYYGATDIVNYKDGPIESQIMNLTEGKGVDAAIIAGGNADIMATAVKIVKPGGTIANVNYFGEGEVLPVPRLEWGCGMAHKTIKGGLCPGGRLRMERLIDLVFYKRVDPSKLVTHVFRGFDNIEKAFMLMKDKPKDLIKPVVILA
# Molecular target: T1, NADP linked alcohol dehydrogenase (secondary alcohol dehydrogenase activity)
# Assay: Effects of metal ions, complexing agents and thiol reagents on the enzyme
# Format: biochemical, Thermoanaerobium brockii
# Settings: not given
# Experimental: Metal ions, complexing agents and thiol reagents had the following effects.
# Each of the above studies were performed at 40° C.
row,Molecule,Inhibition of activity by complexing agents
1,Oc1cccc2cccnc12 [8-hydroxyquinoline],did not significantly inhibit activity
2,"O=C(O)CN(CCN(CC(=O)O)CC(=O)O)CC(=O)O [EDTA, ethylenediamine-tetraacetic acid, reference compound]",did not significantly inhibit activity

# Same assay, conditions: 0.05 mM; 40° C.
row,Molecule,Reaction of thiol reagent with the enzyme (inhibition)
1,"O=C(O)c1cc[c]([Hg][Cl])cc1 [PCMB, parachloromercuricbenzoate]",reacted instantly

# Same assay, conditions: 1 mM; 40° C.
row,Molecule,Activation or inhibition by metal salts
1,[Ca+2].[Cl-].[Cl-] [CaCl2],no significant activation or inhibition
2,[Cl][Cu][Cl] [CuCl2],no significant activation or inhibition
3,[Cl-].[Cl-].[Mg+2] [MgCl2],no significant activation or inhibition
4,[Cl-].[Cl-].[Zn+2] [ZnCl2],no significant activation or inhibition

# Same assay, conditions: 1 mM; slow (15 min.); 40° C.
row,Molecule,Inactivation of the enzyme
1,"CCN1C(=O)C=CC1=O [NEM, N-ethylmaleimide]",inactivated the enzyme

# Same assay, conditions: 2 mM; 40° C.; read-out: Inhibitory effect on secondary alcohol dehydrogenase activity
row,Molecule,inhibition at 2000 µM [%]
1,c1cnc2c(c1)ccc1cccnc12 [orthophenanthroline],15 to 20

# Same assay, conditions: 5 mM DTT, within a few minutes; 1 mM ZnSO4; 40° C.
row,Molecule,Reactivation of PCMB inhibited enzyme
1,"O[C@H](CS)[C@H](O)CS (racemic) [DTT, dithiothreitol]",Complete reversal of the PCMB inhibition
2,O=S(=O)([O-])[O-].[Zn+2] [ZnSO4],necessary for complete reactivation

# Substrate: CC=O
# Assay: Specific activity of partially purified NADP linked alcohol dehydrogenase with alcohols and carbonyl compounds (absorbance at 334 nm)
# Format: biochemical, Thermoanaerobium brockii
# Settings: other: substrate concentration giving half-maximal velocity; pH 7.8; 40.0 °C
row,Molecule,Km [mM]
1,"NADP linked alcohol dehydrogenase (alcohol-aldehyde/ketone oxidoreductase) (Thermoanaerobacter brockii) (protein, of the T. brockii enzyme preparation with various alcohols and carbonyl compounds; made in house; host or cells: T. brockii itself (native host; partially purified enzyme)) MKGFAMLSIGKVGWIEKEKPAPGPFDAIVRPLAVAPCTSDIHTVFEGAIGERHNMILGHEAVGEVVEVGSEVKDFKPGDRVVVPAITPDWRTSEVQRGYHQHSGGMLAGWKFSNVKDGVFGEFFHVNDADMNLAHLPKEIPLEAAVMIPDMMTTGFHGAELADIELGATVAVLGIGPVGLMAVAGAKLRGAGRIIAVGSRPVCVDAAKYYGATDIVNYKDGPIESQIMNLTEGKGVDAAIIAGGNADIMATAVKIVKPGGTIANVNYFGEGEVLPVPRLEWGCGMAHKTIKGGLCPGGRLRMERLIDLVFYKRVDPSKLVTHVFRGFDNIEKAFMLMKDKPKDLIKPVVILA",0.15

# Molecular target: T2, NADP linked alcohol dehydrogenase (alcohol-aldehyde/ketone oxidoreductase)
# Assay: as above
# Format: biochemical, Thermoanaerobium brockii
# Settings: Tris-Cl buffers; acetaldehyde reduction or sec-butanol oxidation
row,Molecule,Optimum pH
1,"CCC(C)O (centres unmarked) [CH3 CH2 CH(OH)CH3, sec-butanol]",7.8-9.0
2,"CC=O [CH3 CHO, acetaldehyde]",7.8

# Same assay, conditions: as coenzymes instead of NADP/NADPH
row,Molecule,Activity with the substance as coenzyme
1,"NC(=O)c1ccc[n+]([C@@H]2O[C@H](COP(=O)([O-])OP(=O)(O)OC[C@H]3O[C@@H](n4cnc5c(N)ncnc54)[C@H](O)[C@@H]3O)[C@@H](O)[C@H]2O)c1 [NAD, reference compound]",No activity
2,"NC(=O)C1=CN([C@@H]2O[C@H](COP(=O)(O)OP(=O)(O)OC[C@H]3O[C@@H](n4cnc5c(N)ncnc54)[C@H](O)[C@@H]3O)[C@@H](O)[C@H]2O)C=CC1 [NADH, reference compound]",No activity

# Same assay, conditions: coenzymes
row,Molecule,Apparent Michaelis constant KM (coenzymes)
1,"NC(=O)c1ccc[n+]([C@@H]2O[C@H](COP(=O)([O-])OP(=O)(O)OC[C@H]3O[C@@H](n4cnc5c(N)ncnc54)[C@H](OP(=O)(O)O)[C@@H]3O)[C@@H](O)[C@H]2O)c1 [NADP, Nicotinamide adenine dinucleotide phosphate]",in the micromolar range
2,"NC(=O)C1=CN([C@@H]2O[C@H](COP(=O)(O)OP(=O)(O)OC[C@H]3O[C@@H](n4cnc5c(N)ncnc54)[C@H](OP(=O)(O)O)[C@@H]3O)[C@@H](O)[C@H]2O)C=CC1 [NADPH, reference compound]",in the micromolar range

# Same assay, conditions: saturating substrate (0.2-0.5 M alcohol or ketone, 10 mM acetaldehyde); 0.5 mM NADP or 0.2 mM NADPH; 0.1 M Tris-Cl pH 7.8
row,Molecule,Activity V/mg. at 60° C. [μ Mole/Min./Mg Protein]
1,O=C1CC2CCC1C2 (centres unmarked),4.9
2,2-Cyclohexanone,4.9
3,CC1CCCCC1=O (centres unmarked) [2-Methyl Cyclohexanone],6.0
4,CC1CCCC(=O)C1 (centres unmarked) [3-Methyl Cyclohexanone],2.0
5,CC1CCC(=O)CC1 [4-Methyl Cyclohexanone],0.5
6,C=CC(O)CC (centres unmarked) [CH2CHCH(OH)CH2 CH3],65.0
7,CC(C)CO [CH3 CH2 (CH3)CH2 OH],3.1
8,CCC(C)CO (centres unmarked) [CH3 CH2 CH2 (CH3)CH2 OH],3.0
9,CCCCCO [CH3 CH2 CH2 CH2 CH2 OH],0.9
10,CCCCO [CH3 CH2 CH2 CH2 OH],4.1
11,CCCO [CH3 CH2 CH2 OH],3.6
12,"CCC(C)O (centres unmarked) [CH3 CH2 CH(OH)CH3, sec-butanol]",78.0
13,CCO [CH3 CH2 OH],3.2
14,CC(O)CC(C)O (centres unmarked) [CH3 CH(OH)CH2 CH(OH)CH3],2.6
15,"CC(C)O [CH3 CH(OH)CH3, isopropanol]",59.0
16,"CC=O [CH3 CHO, acetaldehyde]",7.8
17,"CCC(C)=O [CH3 COCH2 CH3, butanone]",7.6
18,"CC(C)=O [CH3 COCH3, acetone]",10.4
19,CO [CH3 OH],0
20,O=C1CCCCCC1 [Cycloheptanone],3.0
21,OC1CCCCC1 [Cyclohexanol],12.2
22,O=C1CCCCC1 [Cyclohexanone],6.2
23,O=C1CCCCCCC1 [Cyclooctanone],0
24,O=C1CCCC1 [Cyclopentanone],6.0
25,CC(=O)C1CC1 [Methyl cyclopropyl ketone],0.5

# Same assay, conditions: tested as substrates
row,Molecule,Reaction as substrate
1,C[C@H](O)C(=O)O [L-lactic acid],did not react
2,OCC(O)CO [glycerol],did not react

# System: not listed separately
# Assay: Thermostability and storage stability of the alcohol dehydrogenase
# Format: physicochemical, Thermoanaerobium brockii
# Settings: millimolar concentrations
# Experimental: The immobilized alcohol dehydrogenase of example 2 was packed in a small flow cell which allowed amperometric measurement of NAPDH concentration, using a glossy carbon and Ag/Cl electrode with 0.8 volt potential difference. A soltuion containing 0.05 mM NADP and varying concentrations of sec. butanol 10-100 micro molar were passed through the cell and gave a signal which depended on the concentration of alcohol. Alternatively, solutions that contained 10 mM NADPH and varying concentrations of acetone produced signals which decreased linearly with increasing concentrations of acetone at 0-200 mM. Potassium phosphate buffer at 500 mM and pH 7.5 was used in these experiments. The immobilized enzyme system for measurement of ketones and alcohols was stable for 2 weeks at room temperature.
row,Molecule,Effect on thermostability of the enzyme
1,"O=C(O)CN(CCN(CC(=O)O)CC(=O)O)CC(=O)O [EDTA, ethylenediamine-tetraacetic acid, reference compound]",did not decrease thermostability

# Same assay, conditions: room temperature; immobilized on sepharose in flow cell
row,Molecule,Time stable [weeks]
1,"immobilized enzyme system: T. brockii alcohol dehydrogenase immobilized on sepharose 4B-CnBr, packed in a flow cell (protein, UniProt P14941 1-352, looked up, immobilized on CNBr-Sepharose 4B) NADP-dependent isopropanol …: MKGFAMLSIGKVGWIEKEKPAPGPFDAIVRPLAVAPCTSDIHTVFEGAIGERHNMILGHEAVGEVVEVGSEVKDFKPGDRVVVPAITPDWRTSEVQRGYHQHSGGMLAGWKFSNVKDGVFGEFFHVNDADMNLAHLPKEIPLEAAVMIPDMMTTGFHGAELADIELGATVAVLGIGPVGLMAVAGAKLRGAGRIIAVGSRPVCVDAAKYYGATDIVNYKDGPIESQIMNLTEGKGVDAAIIAGGNADIMATAVKIVKPGGTIANVNYFGEGEVLPVPRLEWGCGMAHKTIKGGLCPGGRLRMERLIDLVFYKRVDPSKLVTHVFRGFDNIEKAFMLMKDKPKDLIKPVVILA",2

# Substrate: CCC(C)O
# Assay: purified protein, by the assay type
# Settings: other: substrate concentration giving half-maximal velocity; pH 7.8; 40.0 °C
row,Molecule,Km [mM]
1,"NADP linked alcohol dehydrogenase (alcohol-aldehyde/ketone oxidoreductase) (Thermoanaerobacter brockii) (protein, of the T. brockii enzyme preparation with various alcohols and carbonyl compounds; made in house; host or cells: T. brockii itself (native host; partially purified enzyme)) MKGFAMLSIGKVGWIEKEKPAPGPFDAIVRPLAVAPCTSDIHTVFEGAIGERHNMILGHEAVGEVVEVGSEVKDFKPGDRVVVPAITPDWRTSEVQRGYHQHSGGMLAGWKFSNVKDGVFGEFFHVNDADMNLAHLPKEIPLEAAVMIPDMMTTGFHGAELADIELGATVAVLGIGPVGLMAVAGAKLRGAGRIIAVGSRPVCVDAAKYYGATDIVNYKDGPIESQIMNLTEGKGVDAAIIAGGNADIMATAVKIVKPGGTIANVNYFGEGEVLPVPRLEWGCGMAHKTIKGGLCPGGRLRMERLIDLVFYKRVDPSKLVTHVFRGFDNIEKAFMLMKDKPKDLIKPVVILA",0.5

# System: T. brockii cultures
# Assay: Reduction of ketones by T. brockii cultures
# Format: cell-based, Thermoanaerobium brockii
# Settings: 0.5% ketone in TYEG medium; 60° C.; 15 hours incubation
# Experimental: T. brockii was incubated at 60° C. in anaerobic culture tubes containing the previously described TYEG medium supplemented with 0.5% acetone or butanone. More than 50% of each ketone was converted to the corresponding alcohol after 15 hours incubation. Growth of the organism ceased once the pH fell below 5.0. The reaction is indicated in FIG. 1 when acetone is substituted for glucose to produce the corresponding secondary isopropanol.
row,Molecule,Ketone converted to the corresponding alcohol
1,"CCC(C)=O [CH3 COCH2 CH3, butanone]",More than 50%
2,"CC(C)=O [CH3 COCH3, acetone]",More than 50%

# Reference: patent publication US4352885A, “Preparation of a novel NADP linked alcohol-aldehyde/ketone oxidoreductase from thermophilic anaerobic bacteria for analytical and commercial use” (Wisconsin Alumni Research Foundation, priority 1980, dated 1982)
